The results in this text go back to patent US8653110B2, “Active compound combination comprising azadirachtin and a substituted enaminocarbonyl compound” (Bayer CropScience AG, priority 2010, dated 2014).

The test system of the assay is Cyclocephala immaculata. Kind of assay: Watering test with beetle larvae (Example 2). The assay is classed as in vivo. The following applies: L3 larvae, watering, (I-1) 600, azadirachtin 60, (I-1)+azadirachtin 600+60, trichlorfon 4529 g of active compound/ha. From the text: Beetle larvae (grubs) are important lawn pests. On the one hand, they feed on grass roots, damaging them directly, on the other hand they are a favoured food for birds which, searching for grubs, destroy the turf. For treatment against grubs, infested lawns are usually watered with insecticidal compositions. This type of treatment is emulated in the laboratory by Example 2.
To prepare a suitable active compound preparation, a commercial formulation of active compound or active compound combination is mixed with water until the desired concentration is reached. Pots with soil substrate were watered with the following active compound preparations: • 1. untreated • 2. compound (I-1) as SL 200, 600 g of active compound/ha • 3. azadirachtin, 60 g of active compound/ha • 4. compound (I-1) as SL 200+azadirachtin, 600+60 g of active compound/ha • 5. positive control: trichlorfon 4529 g of active compound/ha
L3 larvae of Cyclocephala immaculata were placed onto the pots. After 1, 4, 7, 14 days, the survival rate was determined, and this was used to calculate the efficacy of the compositions. 100% means that all grubs were killed, 0% means no activity.

Consider `COP(=O)(OC)C(O)C(Cl)(Cl)Cl` (stereo not shown) [trichlorfon], for which, where the note is “day 1”, the “Effect on day 1 in %” value came out at 0%. Further, the “Effect on day 4 in %” value (day 4) came to 17%. Also, the “Effect on day 7 in %” value (day 7) was 29%. In addition, for the setting “day 14”, the “Effect on day 14 in %” value came to 50%.
